Test results as given in patent publication US20050171358A1 (priority 2002, published 2005).

Tests used:
Pyricularia oryzae = type: in vivo; conditions: 200 ppm spray on rice (Koshihikari, 3 leaf stage), inoculated next day; lesion numbers on third leaves after 7 days in green house, graded by Table 5
[1] = system: Colletotrichum lagenarium; conditions: 200 ppm spray on cucumber (3 leaf stage), inoculated next day; lesion numbers on first and second leaves after 7 days in green house, graded by Table 5

With `O=C(NCc1cc(COC2=CC(=O)C3CCC2C3)no1)NC1CCCCC1` (stereo not shown) [II-112, 3-[3-(bicyclo[3.2.1]oct-2-en-4-on-2-yl)oxymethyl-5-isoxazolyl]methyl-1-cyclohexylurea] the “Evaluation (effect for rice blast)” value (Pyricularia oryzae) was 3 (6˜10) and the “Evaluation (effect for cucumber anthracnose)” value [1] was 3 (6˜10).

`Cc1ccc(C(=O)NCc2cc(C(=O)Nc3ccccc3)no2)cc1` [IV-115, N-[(3-phenylaminocarbonyl-5-isoxazolyl)methyl]-4-methylbenzamide] was tested, and the “Evaluation (effect for rice blast)” value (Pyricularia oryzae) was 5 (0) and the “Evaluation (effect for cucumber anthracnose)” value [1] was 5 (0).

For `COc1ccc(C(=O)NCc2cc(COc3cccc(C)c3)no2)cc1` [IV-48, N-{[3-(3-methylphenyl)oxymethyl-5-isoxazolyl]methyl}-4-methoxybenzamide], the “Evaluation (effect for rice blast)” value (Pyricularia oryzae) was 3 (6˜10) and the “Evaluation (effect for cucumber anthracnose)” value [1] was 2 (11˜20).

For `O=C(NCc1cc(Cc2ccccc2)no1)Oc1ccccc1` [I-38, phenyl[(3-benzyl-5-isoxazolyl)methyl]carbamate], the “Evaluation (effect for rice blast)” value (Pyricularia oryzae) was 5 (0) and the “Evaluation (effect for cucumber anthracnose)” value [1] was 5 (0).

With `COc1ccc(C(=O)NCc2cc(-c3ccc(OC)cc3F)no2)cc1` [III-215, N-{[3-(2-fluoro-4-methoxyphenyl)-5-isoxazolyl]methyl}-4-methoxylbenzamide] the “Evaluation (effect for rice blast)” value (Pyricularia oryzae) was 5 (0) and the “Evaluation (effect for cucumber anthracnose)” value [1] was 5 (0).

For `O=C(NCc1cc(-c2ccc(F)cc2)no1)Oc1ccccc1` [I-27, phenyl{[3-(4-fluorophenyl)-5-isoxazolyl)methyl]carbamate], the “Evaluation (effect for rice blast)” value (Pyricularia oryzae) was 5 (0) and the “Evaluation (effect for cucumber anthracnose)” value [1] was 5 (0).

`COc1ccc(C(=O)NCc2cc(C(=O)Nc3ccccc3C#N)no2)cc1` [IV-112, N-{[3-(2-cyanophenyl)aminocarbonyl-5-isoxazolyl]methyl}-4-methoxybenzamide] was tested, and the “Evaluation (effect for rice blast)” value (Pyricularia oryzae) was 2 (11˜20) and the “Evaluation (effect for cucumber anthracnose)” value [1] was 3 (6˜10).

With `CC(C)Cc1cc(CNC(=O)c2ccc(Cl)cc2)on1` [III-252, N-[(3-isobutyl-5-isoxazolyl)methyl]-4-chlorobenzamide] the “Evaluation (effect for rice blast)” value (Pyricularia oryzae) was 5 (0) and the “Evaluation (effect for cucumber anthracnose)” value [1] was 5 (0).

`COc1ccc(C(=O)NCc2cc(COc3c(F)cccc3F)no2)cc1` [IV-86, N-{[3-(2,6-difluorophenyl)oxymethyl-5-isoxazolyl]methyl}-4-methoxybenzamide] was tested, and the “Evaluation (effect for rice blast)” value (Pyricularia oryzae) was 5 (0) and the “Evaluation (effect for cucumber anthracnose)” value [1] was 5 (0).

`O=C(NCc1cc(-c2ccc(Br)cc2)no1)c1ccccc1` [III-37, N-{[3-(4-bromophenyl)-5-isoxazolyl]methyl}benzamide] was tested, and the “Evaluation (effect for rice blast)” value (Pyricularia oryzae) was 5 (0) and the “Evaluation (effect for cucumber anthracnose)” value [1] was 3 (6˜10).

With `Cc1ccc(C(=O)NCc2cc(Cc3ccccc3)no2)cc1` [IV-3, N-[(3-benzyl-5-isoxazolyl)methyl]-4-methylbenzamide] the “Evaluation (effect for rice blast)” value (Pyricularia oryzae) was 5 (0) and the “Evaluation (effect for cucumber anthracnose)” value [1] was 5 (0).

For `COc1ccc(C(=O)NCc2cc(-c3ccccc3)no2)cc1OC` [III-156, N-[(3-phenyl-5-isoxazolyl)methyl]-3,4-dimethoxybenzamide], the “Evaluation (effect for rice blast)” value (Pyricularia oryzae) was 4 (1˜5) and the “Evaluation (effect for cucumber anthracnose)” value [1] was 4 (1˜5).

In the case of `CC(C)c1cc(CNC(=O)C(C)c2ccccc2)on1` (stereo not shown) [I-47, N-[(3-isopropyl-5-isoxazolyl)methyl]-2-phenylpropanamide], the “Evaluation (effect for rice blast)” value (Pyricularia oryzae) is reported as 4 (1˜5) and the “Evaluation (effect for cucumber anthracnose)” value [1] is reported as 4 (1˜5).

With `COc1ccc(C(=O)NCc2cc(COc3ccccc3)no2)cc1` [IV-45, N-[(3-phenyloxymethyl-5-isoxazolyl)methyl]-4-methoxy benzamide] the “Evaluation (effect for rice blast)” value (Pyricularia oryzae) was 5 (0) and the “Evaluation (effect for cucumber anthracnose)” value [1] was 5 (0).

`COc1ccc(C(=O)NCc2cc(C(OC)OC)no2)cc1` [III-249, N-[(3-dimethoxymethyl-5-isoxazolyl)methyl]-4-methoxybenzamide] was tested, and the “Evaluation (effect for rice blast)” value (Pyricularia oryzae) was 2 (11˜20) and the “Evaluation (effect for cucumber anthracnose)” value [1] was 2 (11˜20).

For `Cc1ccc(Cc2cc(CNC(=O)c3ccc(C)cc3)on2)cc1` [IV-10, N-{[3-(4-methylbenzyl)-5-isoxazolyl]methyl}-4-methylbenzamide], the “Evaluation (effect for rice blast)” value (Pyricularia oryzae) was 5 (0) and the “Evaluation (effect for cucumber anthracnose)” value [1] was 5 (0).

For `COc1ccc(C(=O)NCc2cc(C(=O)NC(C)(C)C)no2)cc1` [IV-119, N-[(3-tert-butylaminocarbonyl-5-isoxazolyl)methyl]-4-methoxybenzamide], the “Evaluation (effect for rice blast)” value (Pyricularia oryzae) was 2 (11˜20) and the “Evaluation (effect for cucumber anthracnose)” value [1] was 3 (6˜10).

In the case of `CCCc1cc(CNC(=O)c2ccc(Cl)cc2)on1` [III-263, N-[(3-propyl-5-isoxazolyl)methyl]-4-chlorobenzamide], the “Evaluation (effect for rice blast)” value (Pyricularia oryzae) is reported as 5 (0) and the “Evaluation (effect for cucumber anthracnose)” value [1] is reported as 5 (0).

For `COc1ccc(C(=O)NCc2cc(-c3ccc(C)o3)no2)cc1` [III-247, N-{[3-(2-methylfuran-5-yl)-5-isoxazolyl]methyl}-4-methoxybenzamide], the “Evaluation (effect for rice blast)” value (Pyricularia oryzae) was 5 (0) and the “Evaluation (effect for cucumber anthracnose)” value [1] was 5 (0).

`COc1ccc(Cc2cc(CNC(=O)c3ccc(OC)cc3)on2)cc1` [IV-9, N-{[3-(4-methoxybenzyl)-5-isoxazolyl]methyl}-4-methoxybenzamide] was tested, and the “Evaluation (effect for rice blast)” value (Pyricularia oryzae) was 5 (0) and the “Evaluation (effect for cucumber anthracnose)” value [1] was 5 (0).

For `CCC(CC)c1cc(CNC(=O)c2ccc(OC)cc2)on1` [III-230, N-{[3-(1-ethylpropyl)-5-isoxazolyl]methyl}-4-methoxybenzamide], the “Evaluation (effect for rice blast)” value (Pyricularia oryzae) was 5 (0) and the “Evaluation (effect for cucumber anthracnose)” value [1] was 5 (0).

With `COc1ccc(C(=O)NCc2cc(COc3c(C)cccc3C)no2)cc1` [IV-80, N-{[3-(2,6-dimethylphenyl)oxymethyl-5-isoxazolyl]methyl}-4-methoxybenzamide] the “Evaluation (effect for rice blast)” value (Pyricularia oryzae) was 4 (1˜5) and the “Evaluation (effect for cucumber anthracnose)” value [1] was 4 (1˜5).

For `CC(C)Cc1cc(CNC(=O)Oc2ccccc2)on1` [I-8, phenyl [(3-isobutyl-5-isoxazolyl)methyl]carbamate], the “Evaluation (effect for rice blast)” value (Pyricularia oryzae) was 3 (6˜10) and the “Evaluation (effect for cucumber anthracnose)” value [1] was 3 (6˜10).

In the case of `CCCc1cc(CNC(=O)c2ccc(Cl)cc2Cl)on1` [III-265, N-[(3-propyl-5-isoxazolyl)methyl]-2,4-dichlorobenzamide], the “Evaluation (effect for rice blast)” value (Pyricularia oryzae) is reported as 5 (0) and the “Evaluation (effect for cucumber anthracnose)” value [1] is reported as 4 (1˜5).

`COc1ccc(C(=O)NCc2cc(COc3ccncc3)no2)cc1` [IV-90, N-{[3-(4-pyridyl)oxymethyl-5-isoxazolyl]methyl}-4-methoxybenzamide] was tested, and the “Evaluation (effect for rice blast)” value (Pyricularia oryzae) was 3 (6˜10) and the “Evaluation (effect for cucumber anthracnose)” value [1] was 3 (6˜10).

`COC(=O)c1ccc(-c2cc(CNC(=O)c3ccc(C)cc3)on2)cc1` [III-52, N-{[3-(4-methoxycarbonylphenyl)-5-isoxazolyl]methyl}-4-methylbenzamide] was tested, and the “Evaluation (effect for rice blast)” value (Pyricularia oryzae) was 5 (0) and the “Evaluation (effect for cucumber anthracnose)” value [1] was 5 (0).

For `Cc1ccc(-c2cc(CNC(=O)C3CCC3)on2)cc1` [III-228, N-{[3-(4-tolyl)-5-isoxazolyl]methyl}cyclobutanecarboxamide], the “Evaluation (effect for rice blast)” value (Pyricularia oryzae) was 4 (1˜5) and the “Evaluation (effect for cucumber anthracnose)” value [1] was 3 (6˜10).

With `Cc1ccc(C(=O)NCc2cc(COc3ccccc3)no2)cc1` [IV-46, N-[(3-phenoxymethyl-5-isoxazolyl)methyl]-4-methylbenzamide] the “Evaluation (effect for rice blast)” value (Pyricularia oryzae) was 5 (0) and the “Evaluation (effect for cucumber anthracnose)” value [1] was 5 (0).

With `COc1ccc(C(=O)NCc2cc(COc3ccc(F)cc3)no2)cc1` [IV-59, N-{[3-(4-fluorophenyl)oxymethyl-5-isoxazolyl]methyl}-4-methoxybenzamide] the “Evaluation (effect for rice blast)” value (Pyricularia oryzae) was 5 (0) and the “Evaluation (effect for cucumber anthracnose)” value [1] was 5 (0).
